Experimental data from US4226610A, “Herbicidal compounds, preparation thereof and herbicides containing the same” (Meiji Selka Kaisha, Ltd., priority 1978, dated 1980).
Where a name gives a salt, the structure may show the parent alone.

Experiments:
manna grass = assay: Experiment 1 foliar application to naturally growing weeds; format: in vivo, Digitaria adsceudes Henr.; settings: 2 months
From the text: (§1) The detail of the assessment made in the following Experiments of the invention was as follows:
(§2) Four months after treatment, evaluation was made for inhibition of reproduction expressed in terms of symbols ranging from (-) to (+++) where (-) means no reproduction, namely complete suppression of reproduction, (±) remarkable suppression of reproduction; (+) considerable suppression of reproduction; (++) medium supprestion of reproduction; and (+++) no suppression of reproduction.
(§3) The compounds of the invention and other compounds for comparison listed in Table 3 were diluted to prescribed concentrations and sprayed to naturally growing weeds by foliar application in an amount of 150 liter per 10 are.
(§4) 0.1% of octylphenyl polyoxyethanol was added as a surfactant.
(§5) The killing index (0, no effect, 5, death) after 21 days, and the reproduction-inhibiting effect (-, no reproduction; +++, maximum reproduction) after 2 months (manna grass and cockspar grass) and 4 months (other weeds) were determined.

cockspar grass = assay: as above; format: in vivo, Echinochloa Crusgalli P. Beauv.; settings: 2 months
From the text: as §1, §2, §3, §4, §5

yabugarashi = assay: as above; format: in vivo, Cayratia japonica Houtt.; settings: 4 months
From the text: as §1, §2, §3, §4, §5

purple nutsedge = assay: as above; format: in vivo, Cyperus rotundus L.; settings: 4 months
From the text: as §1, §2, §3, §4, §5

warunasubi = assay: as above; format: in vivo, Solanum carolinensis L.; settings: 4 months
From the text: as §1, §2, §3, §4, §5

hedge bindweed = assay: as above; format: in vivo, Calystegis hederacea Wall.; settings: 4 months
From the text: as §1, §2, §3, §4, §5

white clover = assay: as above; format: in vivo, Trifolium repens L.; settings: for Reproduction-inhibiting effect: 4 months; for Killing index of Upperground parts: 21 days
From the text: as §1, §2, §3, §4, §5

azumanezasa = assay: as above; format: in vivo, Pleioblastus Chino Makino; settings: 4 months
From the text: as §1, §2, §3, §4, §5

chigaya = assay: as above; format: in vivo, Imperata cylindrica Beauv.; settings: for Reproduction-inhibiting effect: 4 months
From the text: as §1, §2, §3, §4, §5

eulalia = assay: Experiment 2 foliar application in Japanese cypress afforested land; format: in vivo, Miscanthus sinensis Andress.; design: key: 0 = no effect, 5 = death; settings: 0.125%
Protocol: as §1
(§6) The compounds of the invention and other compounds listed in Table 4. were diluted to prescribed concentrations and sprayed to shrubs by foliar application in a Japanese cypress afforested land in an amount of 150 liter per 10 are.
(§7) After 30 days and 3 months, the killing index (0, no effect; 5, death) was determined.
(§8) The heights of plants were 50-70 cm. for Japanese cypress, about 50 cm. for chestnut, 50-90 cm. for miyakozasa, about 100 cm. for eulalia and 70-100 cm. for kumaichigo, respectively.

kumaichigo = assay: as above; format: in vivo, Rubus crataegifolius Bunge
Protocol: as §1, §6, §7, §8

Japanese bush cranberry = assay: Experiment 3 foliar application to naturally growing shrubs; format: in vivo, Viburnum dilatatum Thunb.; settings: for Reproduction-inhibiting: after 3 months
From the text: as §1, §2
(§9) The compounds of the invention and other compounds listed in Table 5. were diluted to prescribed concentrations and sprayed onto naturally growing shrubs by foliar application in an amount of 150 liter per 10 are.
(§10) 0.1% of octylphenyl polyoxyethanol was added as the surfactant. The killing index (0, no effect; 5, death) after 1 month and 3 months, and the reproduction-inhibiting effect (-, no reproduction; +++, maximum reproduction) after 3 months were determined.

kiichigo = assay: as above; format: in vivo, Rubus palmatsu Thunb. forma coptophyllus Makino; settings: for Reproduction-inhibiting: after 3 months
From the text: as §1, §2, §9, §10

Japanese prickly ash = assay: as above; format: in vivo, Xanthoxylum piperitum DC.; settings: after 3 months
From the text: as §1, §2, §9, §10

lace shrub = assay: as above; format: in vivo, Stephanandra incisa Zabel; settings: for Reproduction-inhibiting: after 3 months
From the text: as §1, §2, §9, §10

yamazakura = assay: as above; format: in vivo, Prunus donarium Sieb. var. spontanae Makino; settings: after 3 months
From the text: as §1, §2, §9, §10

torch azalea = assay: as above; format: in vivo, Rhododendoron Kaempferi Planch.; settings: after 3 months
From the text: as §1, §2, §9, §10

oak = assay: as above; format: in vivo, Quercus serrata Thunb; settings: after 3 months
From the text: as §1, §2, §9, §10

water hyacinth = assay: Experiment 5 foliar application to water hyacinths; format: in vivo, Eichhornia crassipes Solms; design: key to Killing index: 0 = no effect, 5 = death; settings: for Reproduction-inhibiting effect: 3 months
From the text: as §1, §2
Water was placed in 20 cm.×30 cm. plastic vessels and a liquid fertilizer was added thereto. Two water hyacinths were floated in each vessel.
0.1 or 0.2% aqueous solutions of each of the compounds of the invention listed in Table 7 were sprayed by foliar application in an amount of 100 liter per 10 are. As a surfactant, 0.1% of octylphenyl polyoxyethanol was added.
The killing index (0, no effect; 5, death) after 21 days and 3 months, and the reproduction-inhibiting effect (-, no reproduction; +++, maximum reproduction) after 3 months were determined.

CP(=O)(O)CCC(N)C(=O)O (racemic) [DL-2-Amino-4-methylphosphinobutanoic acid monodiethanolammon] [DL-2-Amino-4-methylphosphinobutanoic acid monodiethanolammonium salt]
-: Reproduction-inhibiting effect (manna grass; 0.2%) | Reproduction-inhibiting effect (cockspar grass; 0.2%) | Reproduction-inhibiting effect (white clover; 0.2%) | Reproduction-inhibiting effect (azumanezasa; 0.2%) | Reproduction-inhibiting effect (chigaya; 0.2%) | Reproduction-inhibiting (kiichigo; 0.2%) | Reproduction-inhibiting (Japanese prickly ash; 0.2%) | Reproduction-inhibiting (lace shrub; 0.2%) | Reproduction-inhibiting (yamazakura; 0.2%) | Reproduction-inhibiting (torch azalea; 0.2%) | Reproduction-inhibiting (oak; 0.2%)
1.5: Killing index (eulalia; after 3 months) | Killing index (kumaichigo; 0.125%, after 3 months)
2.5: Killing index of Upperground parts (chigaya; 0.05%, 21 days)
+: Reproduction-inhibiting effect (purple nutsedge; 0.2%) | Reproduction-inhibiting effect (warunasubi; 0.2%) | Reproduction-inhibiting effect (azumanezasa; 0.1%)
+++: Reproduction-inhibiting effect (manna grass; 0.05%) | Reproduction-inhibiting effect (cockspar grass; 0.05%) | Reproduction-inhibiting effect (yabugarashi; 0.05%) | Reproduction-inhibiting effect (yabugarashi; 0.1%) | Reproduction-inhibiting effect (purple nutsedge; 0.05%) | Reproduction-inhibiting effect (purple nutsedge; 0.1%) | Reproduction-inhibiting effect (warunasubi; 0.05%) | Reproduction-inhibiting effect (warunasubi; 0.1%) | Reproduction-inhibiting effect (hedge bindweed; 0.05%) | Reproduction-inhibiting effect (hedge bindweed; 0.1%) | Reproduction-inhibiting effect (hedge bindweed; 0.2%) | Reproduction-inhibiting effect (white clover; 0.05%) | Reproduction-inhibiting effect (white clover; 0.1%) | Reproduction-inhibiting effect (azumanezasa; 0.05%) | Reproduction-inhibiting effect (chigaya; 0.05%) | Reproduction-inhibiting (Japanese bush cranberry; 0.05%) | Reproduction-inhibiting (kiichigo; 0.05%) | Reproduction-inhibiting (Japanese prickly ash; 0.05%) | Reproduction-inhibiting (lace shrub; 0.05%) | Reproduction-inhibiting (yamazakura; 0.05%) | Reproduction-inhibiting (torch azalea; 0.05%) | Reproduction-inhibiting (oak; 0.05%)
++: Reproduction-inhibiting effect (manna grass; 0.1%) | Reproduction-inhibiting effect (cockspar grass; 0.1%) | Reproduction-inhibiting effect (yabugarashi; 0.2%) | Reproduction-inhibiting effect (chigaya; 0.1%) | Reproduction-inhibiting (Japanese bush cranberry; 0.1%) | Reproduction-inhibiting (Japanese bush cranberry; 0.2%) | Reproduction-inhibiting (kiichigo; 0.1%) | Reproduction-inhibiting (Japanese prickly ash; 0.1%) | Reproduction-inhibiting (lace shrub; 0.1%) | Reproduction-inhibiting (yamazakura; 0.1%) | Reproduction-inhibiting (torch azalea; 0.1%) | Reproduction-inhibiting (oak; 0.1%)

CP(=O)(O)CC[C@H](N)C(=O)O [L-2-Amino-4-methylphosphinobutanoic acid monodiethanolammoni] [L-2-Amino-4-methylphosphinobutanoic acid monodiethanolammonium salt]
4.5: Killing index (kumaichigo; 0.125%, after 30 days) | Killing index (Japanese bush cranberry; 0.1%, after 30 days) | Killing index (Japanese prickly ash; 0.1%)
-: Reproduction-inhibiting effect (manna grass; 0.1%) | Reproduction-inhibiting effect (manna grass; 0.2%) | Reproduction-inhibiting effect (cockspar grass; 0.1%) | Reproduction-inhibiting effect (cockspar grass; 0.2%) | Reproduction-inhibiting effect (white clover; 0.1%) | Reproduction-inhibiting effect (white clover; 0.2%) | Reproduction-inhibiting effect (azumanezasa; 0.1%) | Reproduction-inhibiting effect (azumanezasa; 0.2%) | Reproduction-inhibiting effect (chigaya; 0.1%) | Reproduction-inhibiting effect (chigaya; 0.2%) | Reproduction-inhibiting (Japanese bush cranberry; 0.2%) | Reproduction-inhibiting (kiichigo; 0.1%) | Reproduction-inhibiting (kiichigo; 0.2%) | Reproduction-inhibiting (Japanese prickly ash; 0.2%) | Reproduction-inhibiting (lace shrub; 0.1%) | Reproduction-inhibiting (lace shrub; 0.2%) | Reproduction-inhibiting (yamazakura; 0.1%) | Reproduction-inhibiting (yamazakura; 0.2%) | Reproduction-inhibiting (torch azalea; 0.1%) | Reproduction-inhibiting (torch azalea; 0.2%) | Reproduction-inhibiting (oak; 0.1%) | Reproduction-inhibiting (oak; 0.2%)
+++: Reproduction-inhibiting effect (purple nutsedge; 0.05%) | Reproduction-inhibiting effect (warunasubi; 0.05%) | Reproduction-inhibiting effect (hedge bindweed; 0.05%) | Reproduction-inhibiting effect (white clover; 0.05%) | Reproduction-inhibiting (Japanese bush cranberry; 0.05%) | Reproduction-inhibiting (Japanese prickly ash; 0.05%) | Reproduction-inhibiting (torch azalea; 0.05%)
++: Reproduction-inhibiting effect (manna grass; 0.05%) | Reproduction-inhibiting effect (cockspar grass; 0.05%) | Reproduction-inhibiting effect (yabugarashi; 0.05%) | Reproduction-inhibiting effect (hedge bindweed; 0.1%) | Reproduction-inhibiting effect (azumanezasa; 0.05%) | Reproduction-inhibiting effect (chigaya; 0.05%) | Reproduction-inhibiting (Japanese bush cranberry; 0.1%) | Reproduction-inhibiting (kiichigo; 0.05%) | Reproduction-inhibiting (lace shrub; 0.05%) | Reproduction-inhibiting (yamazakura; 0.05%) | Reproduction-inhibiting (oak; 0.05%)
±: Reproduction-inhibiting effect (yabugarashi; 0.2%) | Reproduction-inhibiting effect (purple nutsedge; 0.2%) | Reproduction-inhibiting effect (warunasubi; 0.2%) | Reproduction-inhibiting (Japanese prickly ash; 0.1%)
+: Reproduction-inhibiting effect (yabugarashi; 0.1%) | Reproduction-inhibiting effect (purple nutsedge; 0.1%) | Reproduction-inhibiting effect (warunasubi; 0.1%) | Reproduction-inhibiting effect (hedge bindweed; 0.2%)
3.5: Killing index (eulalia; after 30 days) | Killing index (kiichigo; 0.05%, after 30 days) | Killing index (lace shrub; 0.05%, after 30 days)

C[C@H](NC(=O)[C@H](C)NC(=O)[C@@H](N)CCP(C)(=O)O)C(=O)O [monosodium salt]
+: Reproduction-inhibiting effect (purple nutsedge; 0.2%, monosodium salt) | Reproduction-inhibiting effect (warunasubi; 0.2%, monosodium salt) | Reproduction-inhibiting effect (white clover; 0.2%, monosodium salt) | Reproduction-inhibiting effect (azumanezasa; 0.1%, monosodium salt) | Reproduction-inhibiting (Japanese bush cranberry; 0.1%, monosodium salt) | Reproduction-inhibiting (kiichigo; 0.1%, monosodium salt) | Reproduction-inhibiting (Japanese prickly ash; 0.1%, monosodium salt) | Reproduction-inhibiting effect (water hyacinth; 0.1%, listed as SF-1293 monosodium salt, monosodium salt)
+++: Reproduction-inhibiting effect (manna grass; 0.05%, monosodium salt) | Reproduction-inhibiting effect (cockspar grass; 0.05%, monosodium salt) | Reproduction-inhibiting effect (yabugarashi; 0.05%, monosodium salt) | Reproduction-inhibiting effect (purple nutsedge; 0.05%, monosodium salt) | Reproduction-inhibiting effect (purple nutsedge; 0.1%, monosodium salt) | Reproduction-inhibiting effect (warunasubi; 0.05%, monosodium salt) | Reproduction-inhibiting effect (warunasubi; 0.1%, monosodium salt) | Reproduction-inhibiting effect (hedge bindweed; 0.05%, monosodium salt) | Reproduction-inhibiting effect (hedge bindweed; 0.1%, monosodium salt) | Reproduction-inhibiting effect (hedge bindweed; 0.2%, monosodium salt) | Reproduction-inhibiting effect (white clover; 0.05%, monosodium salt) | Reproduction-inhibiting effect (white clover; 0.1%, monosodium salt) | Reproduction-inhibiting effect (azumanezasa; 0.05%, monosodium salt) | Reproduction-inhibiting (Japanese bush cranberry; 0.05%, monosodium salt) | Reproduction-inhibiting (kiichigo; 0.05%, monosodium salt) | Reproduction-inhibiting (Japanese prickly ash; 0.05%, monosodium salt) | Reproduction-inhibiting (lace shrub; 0.05%, monosodium salt) | Reproduction-inhibiting (yamazakura; 0.05%, monosodium salt) | Reproduction-inhibiting (torch azalea; 0.05%, monosodium salt) | Reproduction-inhibiting (oak; 0.05%, monosodium salt)
++: Reproduction-inhibiting effect (manna grass; 0.1%, monosodium salt) | Reproduction-inhibiting effect (cockspar grass; 0.1%, monosodium salt) | Reproduction-inhibiting effect (yabugarashi; 0.1%, monosodium salt) | Reproduction-inhibiting effect (chigaya; 0.1%, monosodium salt) | Reproduction-inhibiting (lace shrub; 0.1%, monosodium salt) | Reproduction-inhibiting (yamazakura; 0.1%, monosodium salt) | Reproduction-inhibiting (torch azalea; 0.1%, monosodium salt) | Reproduction-inhibiting (oak; 0.1%, monosodium salt)
4.5: Killing index (kumaichigo; 0.25%, after 30 days, monosodium salt) | Killing index (water hyacinth; 0.2%, 21 days, listed as SF-1293 monosodium salt, monosodium salt)
-: Reproduction-inhibiting effect (azumanezasa; 0.2%) | Reproduction-inhibiting effect (chigaya; 0.2%) | Reproduction-inhibiting (Japanese bush cranberry; 0.2%) | Reproduction-inhibiting (kiichigo; 0.2%) | Reproduction-inhibiting (Japanese prickly ash; 0.2%) | Reproduction-inhibiting (lace shrub; 0.2%) | Reproduction-inhibiting (yamazakura; 0.2%) | Reproduction-inhibiting (torch azalea; 0.2%) | Reproduction-inhibiting (oak; 0.2%) | Reproduction-inhibiting effect (water hyacinth; 0.2%)
1.5: Killing index of Upperground parts (white clover; 0.05%, monosodium salt)
3.5: Killing index of Upperground parts (white clover; 0.1%, monosodium salt)
±: Reproduction-inhibiting effect (manna grass; 0.2%, monosodium salt) | Reproduction-inhibiting effect (cockspar grass; 0.2%, monosodium salt) | Reproduction-inhibiting effect (yabugarashi; 0.2%, monosodium salt)
